Results from patent US20240158367A1, “TRICYCLIC COMPOUND AS HIF2-ALPHA INHIBITOR, PREPARATION METHOD THEREFOR AND APPLICATION THEREOF” (SHANGHAI JEMINCARE PHARMACEUTICALS CO., LTD, priority 2021, published 2024).

system: VEGF expression in 786-O cells; experiment: VEGF ELISA assay in 786-O cells; format: cell-based; details: about 48 hours incubation
Method: 100×DMSO stock solution dissolved with the drug was prepared in assay medium (RPMI-1640 containing 2% FBS; FBS: 10099141C, Gibco; RPMI-1640: 12440053, Gibco) to formulate a series of dilutions of 10×compounds. To a clear flat-bottom 96-well plate (3599, Corning) was added 20 μL of the 10×compound dilution. Then approximately 40,000 786-O cells (ATCC®CRL-1932™) in 180 μL of culture medium were seeded into the 96-well plate. The final concentration of DMSO (D2650, Sigma) in each well was 0.1%. After incubating in the incubator for about 48 hours, 100 μL of the upper medium from each well was pipetted and placed in a new 96-well plate (3799, Corning). An ELISA kit (DY293B, R&D Systems) was used. The concentration of VEGF was determined according to the OD value of each well at […] detected by a microplate reader. EC50 values were calculated by GraphPad Prism software using the dose-response-inhibition (four parameter) equation.

| Compound | EC50 [nM] |
| --- | --- |
| N=S1(=O)c2ccc(Oc3cc(F)cc(Cl)c3)c3c2C(O)(CC3F)C1(F)F (centres unmarked) [Compound 1] | 115 |
| N#Cc1cncc(Oc2ccc3c4c2[C@@H](F)[C@H](F)[C@]4(O)C(F)(F)S3(=O)=O)c1 [Compound 3-P1] | 180 |
| N#Cc1cncc(Oc2ccc3c4c2[C@H](F)[C@@H](F)[C@@]4(O)C(F)(F)S3(=O)=O)c1 [Compound 3-P2] | 2760 |
| N#Cc1cncc(Oc2ccc3c4c2[C@@H](F)[C@@H](F)[C@]4(O)C(F)(F)S3(=O)=O)c1 [Compound 3-P3] | 30.9 |
| N#Cc1cncc(Oc2ccc3c4c2[C@H](F)[C@H](F)[C@@]4(O)C(F)(F)S3(=O)=O)c1 [Compound 3-P4] | 4920 |
| N#Cc1cc(F)cc(Oc2ccc3c4c2[C@@H](F)[C@H](F)[C@]4(O)C(F)(F)S3(=O)=O)c1 [Compound 4-P1] | 40.5 |
| N#Cc1cc(F)cc(Oc2ccc3c4c2[C@H](F)[C@@H](F)[C@@]4(O)C(F)(F)S3(=O)=O)c1 [Compound 4-P2] | 54.4 |
| N#Cc1cc(F)cc(Oc2ccc3c4c2[C@@H](F)[C@@H](F)[C@]4(O)C(F)(F)S3(=O)=O)c1 [Compound 4-P3] | 15.2 |
| N#Cc1cc(F)cc(Oc2ccc3c4c2[C@H](F)[C@H](F)[C@@]4(O)C(F)(F)S3(=O)=O)c1 [Compound 4-P4] | 737 |

system: HIF response element(HRE)-dependent luciferase in 786-O-HRE-Luc cells; experiment: Luciferase assay in 786-O-HRE-Luc cells; format: cell-based; details: approximately 24 hours incubation
Method: 786-O-HRE-Luc cells were obtained by infecting 786-O (ATCC®CRL-1932™) cells purchased from ATCC with commercial lentivirus. Appropriate 786-O-HRE-Luc single cell clones were screened, expanded, and used for the subsequent luciferase assay. For the luciferase assay, 100×DMSO stock solution dissolved with the drug was prepared in assay medium (RPMI-1640 containing 2% FBS; FBS: 10099141C, Gibco; RPMI-1640: 12440053, Gibco) to formulate a series of dilutions of 10×compounds. To a clear flat-bottom 96-well plate (3599, Corning) was added 20 μL of the 10×compound dilution. Then approximately 100,000 786-O-HRE-Luc cells in 180 μL of culture medium were seeded into the 96-well plate. The final concentration of DMSO (D2650, Sigma) in each well was 0.1%. After approximately 24 hours of incubation in the incubator, luciferase activity was determined using the Dual-Luciferase Reporter Assay System (E1960, Promega) reagent following the manufacturer's recommended method. EC50 values were calculated by GraphPad Prism software using the dose-response-inhibition (four parameter) equation.

| Compound | EC50 [nM] |
| --- | --- |
| N#Cc1cc(F)cc(Oc2ccc3c4c2C(F)CC4(O)C(F)(F)S3(=N)=O)c1 (centres unmarked) [Compound 2] | 46 |
| N#Cc1cncc(Oc2ccc3c4c2[C@@H](F)[C@H](F)[C@]4(O)C(F)(F)S3(=O)=O)c1 [Compound 3-P1] | 67.7 |
| N#Cc1cncc(Oc2ccc3c4c2[C@H](F)[C@@H](F)[C@@]4(O)C(F)(F)S3(=O)=O)c1 [Compound 3-P2] | 3990 |
| N#Cc1cncc(Oc2ccc3c4c2[C@@H](F)[C@@H](F)[C@]4(O)C(F)(F)S3(=O)=O)c1 [Compound 3-P3] | 12.2 |
| N#Cc1cncc(Oc2ccc3c4c2[C@H](F)[C@H](F)[C@@]4(O)C(F)(F)S3(=O)=O)c1 [Compound 3-P4] | 6410 |
| N#Cc1cc(F)cc(Oc2ccc3c4c2[C@@H](F)[C@H](F)[C@]4(O)C(F)(F)S3(=O)=O)c1 [Compound 4-P1] | 19.2 |
| N#Cc1cc(F)cc(Oc2ccc3c4c2[C@H](F)[C@@H](F)[C@@]4(O)C(F)(F)S3(=O)=O)c1 [Compound 4-P2] | 48.5 |
| N#Cc1cc(F)cc(Oc2ccc3c4c2[C@@H](F)[C@@H](F)[C@]4(O)C(F)(F)S3(=O)=O)c1 [Compound 4-P3] | 6.1 |
| N#Cc1cc(F)cc(Oc2ccc3c4c2[C@H](F)[C@H](F)[C@@]4(O)C(F)(F)S3(=O)=O)c1 [Compound 4-P4] | 511 |

system: not listed separately; experiment: Pharmacokinetic test in SD rats by gavage; details: SD rats, PO; 10 mg/kg vs PT2385 5 mg/kg
Method: animals: SD rats, male, 200 to 220 g, purchased from Shanghai Jiesijie Laboratory Animal Co., Ltd.
The SD rats in each test compound group (3 rats in each group) were fasted overnight and then intragastrically administered the compounds (PO, administration dosage of 10 mg/kg or 5 mg/kg, administration volume of 10 mL/kg), and given food 4 hours after administration.
Approximately 0.2 mL of blood was collected from the jugular vein before administration and 0.083 hours, 0.25 hours, 0.5 hours, 1 hour, 2 hours, 4 hours, 6 hours, 8 hours, and 24 hours after administration, anticoagulated with sodium heparin. Blood samples were placed on ice after collection, and plasma was separated by centrifugation (centrifugation conditions: 1500 g, 10 minutes). The collected plasma was stored at −40° C. to −20° C. before analysis.
LC-MS/MS was used to determine the content of the test compound in rat plasma after intragastric administration.

| Compound | Plasma concentration and area under the curve compared with comparative example PT2385 |
| --- | --- |
| N#Cc1cncc(Oc2ccc3c4c2[C@@H](F)[C@@H](F)[C@]4(O)C(F)(F)S3(=O)=O)c1 [Compound 3-P3] | significantly improved plasma concentration and area under the curve |

same assay, conditions: SD rats, male, PO 10 mg/kg, plasma

| Compound | Area under the curve AUC0-∞ [ng·h/mL] | Plasma concentration Cmax [ng/mL] |
| --- | --- | --- |
| N#Cc1cncc(Oc2ccc3c4c2[C@@H](F)[C@@H](F)[C@]4(O)C(F)(F)S3(=O)=O)c1 [Compound 3-P3] | 24806 | 4646 |

same assay, conditions: male, SD, rat, in vivo, po, 5 mg/kg

| Compound | AUC(0-inf) [ng·h/mL] | Cmax [ng/mL] |
| --- | --- | --- |
| CS(=O)(=O)c1ccc(Oc2cc(F)cc(C#N)c2)c2c1[C@H](O)C(F)(F)C2 [PT2385, reference compound] | 843 | 193 |
